Measured values published in US20100298348A1, “Method of Decreasing Ubiquitylated Protein Levels” (priority 2009, published 2010).

How the values were obtained:
[1] = test system: LC3, Beclin 1, LAMP2A, cathepsin D; experiment: Western blots of autophagy and lysosomal degradation mediators in 3xTg-AD mouse brain; assay type: in vivo; conditions: 3xTg-AD mice 12 months old, 5 mg/kg/day, 2 months
Description: The concentrations of several proteins involved in these pathways, specifically LC3, Beclin 1 (macroautophagy), LAMP2A (chaperone mediated autophagy), and cathepsin D (lysosomal protease) were measured in Western blots from 3xTg-AD mouse brains (FIG. 18, extracts from the same animals used in Examples 15-17.

Presenilin 1 = experiment: Western blot of Presenilin 1 in 3xTg-AD mouse brain; assay type: in vivo; conditions: 3xTg-AD mice ~12 months old, 5 mg/kg/day, 2 months
Description: (§1) Western blots were probed with antibodies against BACE1 and ADAM10. FIG. 11A is a series of Western blots depicting levels of proADAM10, ADAM10, proBACE, BACE, Presenilinl and APP-CFTs in brain extracts from ST101 treated 3×TG-AD mice (S) versus control mice (C). C: control brain extract. S: ST101-treated brain extract. Animals were approximately 12 months old at sacrifice after 2 months of treatment with ST101 at 5 mg/kg/day.

ADAM10 [2] = experiment: Western blot of ADAM10 in 3xTg-AD mouse brain; assay type: in vivo; conditions: 3xTg-AD mice ~12 months old, 5 mg/kg/day, 2 months
Description: (§2) APP C-terminal fragments C99 and C83 are created by beta-secretase and alpha-secretase cleavage respectively. The reduction of both C99 and C83 induced by ST101 could therefore be due to reduction or inhibition of secretases. This hypothesis was tested using Western blots of brain extracts from 3xTg-AD mice from the initial experiment in 12-month-old animals treated with ST101 for 2 months. The only beta-secretase is BACE1 and the constitutive alpha-secretase is ADAM10.
as §1

ADAM10 [3] = experiment: Western blot of ADAM10 in cynomolgus monkey hippocampus; assay type: in vivo; conditions: male cynomolgus monkeys, 9 months oral, 100 mg/kg/day
Description: (§3) Male cynomolgus monkeys were treated for 9 months with 0, 10, 30 or 100 mg/kg/day ST101 with once daily oral drug administration. Hippocampal brain samples were analyzed in Western blots and ELISAs for APP fragments and Aβ. […] Reductions in a ˜55-kDa fragment were also seen with treatment in these groups. Black outlines depict image level enhancement in Adobe Photoshop CS4, to better visualize weak signals. […] However, long exposures reveal the presence of the 17-kDa APP fragment only in treated monkeys (antibody CT20, Calbiochem). This fragment was not detected in either the 30 or 10 mg/kg/day ST101 groups. Error bars indicate SEM (standard error of the mean) and * indicates statistical significance versus control (p<0.05). (S: ST101-treated animals, versus C: control animals).

proteasome = experiment: Western blot of proteasome subunits in brain extracts; assay type: in vivo, mouse; conditions: 12-month-old 3xTg-AD mice, 5 mg/kg/day, 2 months
Description: Brain extracts from 12-month-old 3xTg-AD mice (described in Example 15) that had been treated with ST101 at 5/mg/kg/day in drinking water over 2 months were analyzed in Western blots using an anti-proteasome alpha-subunit antibody.

sAPP-beta = experiment: Western blot of sAPP-beta in 3xTg-AD mouse brain; assay type: in vivo; conditions: 3xTg-AD mice ~14.5 months old, 5 mg/kg/day in drinking water, 2 months as printed
Description: FIG. 10B describes a reduction of fragment C99. C99 is created by BACE cleavage which leads to release of soluble APP, specifically sAPP-beta. […] The Western blot was obtained using an sAPP-beta specific antibody in brain extracts from ST101 treated 3×TG-AD mice (S) versus control mice (C). Animals were approximately 14.5 months old at sacrifice after 2 months of treatment with ST101 at 5 mg/kg/day in drinking water.

ADAM17 (TACE) = experiment: Western blot of TACE in 3xTg-AD mouse brain; assay type: in vivo; conditions: 3xTg-AD mice ~14.5 months old, 5 mg/kg/day in drinking water, 2 months as printed
Description: In addition to ADAM10, ADAM17 (TACE, which is Tumor Necrosis Factor converting enzyme) is known to act as an alpha-secretase of APP. Thus, it was tested in a Western blot whether ST101 reduces levels of ADAM17 (TACE).
The Western blot was obtained using a TACE specific antibody in brain extracts from ST101 treated 3×TG-AD mice (S) versus control mice (C). Animals were approximately 14.5 months old at sacrifice after 2 months of treatment with ST101 at 5 mg/kg/day in drinking water.

tau = experiment: Western blot of tau species in 3xTg-AD mouse brain; assay type: in vivo; conditions: 3xTg-AD mice ~12 months old, 5 mg/kg/day, 2 months, overexposed blot
Text: The status of tau phosphorylation, accumulation and degradation can be assessed in Western blots. Two anti-tau antibodies, directed against non-phosphorylated and phosphorylated tau, were used to probe brain extracts from the initial experiment. FIG. 12 is a series of Western blots depicting levels of full-length tau, tau accumulates, tau degradation products and phosphorylated tau levels in brain extracts from ST101 treated 3×TG-AD mice (S) versus control mice (C). Beta actin levels (Ac) were used as a loading control. P-tau, two panels per antibody: top—normal exposure; bottom—overexposure to visualize minor protein bands. Ac: beta actin antibody as protein loading control. Animals were approximately 12 months old at sacrifice after 2 months of treatment with ST101 at 5 mg/kg/day.

APP = experiment: Western blot of APP fragments in cynomolgus monkey hippocampus, 9-month study; assay type: in vivo; conditions: male cynomolgus monkeys, 9 months oral
Description: as §3

ubiquitylated proteins = experiment: Anti-ubiquitin Western blot of C57/B6 wildtype mouse brain; assay type: in vivo; conditions: C57/B6 wildtype mice, 5 mg/kg/day in drinking water, 2 months
Description: Brain extracts from 2 month-old C57/B6 wildtype mice that had been treated with ST101 at 5/mg/kg/day in drinking water over 2 months were analyzed in Western blots using an anti-ubiquitin antibody (Dako no. Z0448).

BACE1 = experiment: Western blot of BACE in 3xTg-AD mouse brain; assay type: in vivo; conditions: 3xTg-AD mice ~12 months old, 5 mg/kg/day, 2 months
Description: as §2, §1

BACE = experiment: Western blot of BACE in cynomolgus monkey hippocampus; assay type: in vivo; conditions: male cynomolgus monkeys, 9 months oral, 100 mg/kg/day
Description: as §3

Compound: O=C1N=C2C=CC=CN2C12Cc1ccccc1C2 [ST101, spiro(imidazo[1,2-a]pyridin-2(3H)-one-3,2′-indan)]
- Beclin 1 concentration [1]: did not reveal any obvious differences
- LAMP2A concentration [1]: did not reveal any obvious differences
- LC3 concentration [1]: did not reveal any obvious differences
- cathepsin D concentration [1]: did not reveal any obvious differences
- Presenilin 1 level (Presenilin 1): did not show significant changes
- ADAM-10 protein level (ADAM10 [2]): not significantly affected
- pro-ADAM10 protein level (ADAM10 [2]): profound reduction
- ADAM10 level (ADAM10 [3]): no differences
- concentration of proteasome alpha subunits (proteasome): No difference is apparent
- high molecular weight bands reactive with proteasome alpha-subunit antibody (proteasome): clear decrease
- proteasome subunit beta 2i (proteasome): did not reveal changes
- proteasome subunit beta 5i (proteasome): did not reveal changes
- sAPP-beta (sAPP-beta): concomitant reduction
- TACE levels (ADAM17 (TACE)): reduction of TACE levels in the majority of ST101 treated animals
- accumulated tau and degradation products (tau; H7 antibody): disappearance
- phosphorylated tau degradation product (tau; R-p-tau antibody): appearance of a new phosphorylated tau degradation product
- C83 APP fragment (APP; 10 mg/kg/day): no differences
- C99 APP fragment (APP; 10 mg/kg/day): no differences
- 17-kDa APP fragment (APP; 10 mg/kg/day, antibody CT20): not detected
- C83 APP fragment (APP; 30 mg/kg/day): reductions
- C99 APP fragment (APP; 30 mg/kg/day): reductions
- ~55-kDa APP fragment (APP; 30 mg/kg/day): Reductions
- 17-kDa APP fragment (APP; 30 mg/kg/day, antibody CT20): not detected
- C83 APP fragment (APP; 100 mg/kg/day): reductions
- C99 APP fragment (APP; 100 mg/kg/day): reductions
- ~55-kDa APP fragment (APP; 100 mg/kg/day): Reductions
- 17-kDa APP fragment (APP; 100 mg/kg/day, antibody CT20, long exposures): presence
- ubiquitylated proteins (ubiquitylated proteins): modest reduction
- BACE protein level (BACE1): profound reduction
- Pro-BACE protein level (BACE1): not significantly affected
- BACE level (BACE): no differences
